Results on seven compounds are retold here after PubChem BioAssay (NCI).

Among the test systems are HS 578T breast; IGROV1 ovarian; K-562 leukemia; MOLT-4 leukemia; NCI-H522 lung; SF-295 CNS; SF-539 CNS; SK-MEL-2 melanoma; SW-620 colon; TK-10 renal.
Holding throughout (experiment): inhibition of tumour cell growth, NCI panel, 48 h

“And” between values parts separate entries of the source, which are not always exact repeats. Equal values may be shown once.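 Briefly, cells in 96-well plates were exposed to five compound concentrations for 48 h, and endpoints were estimated by linear interpolation. Abbreviation: GI50, concentration required for 50% inhibition of growth. TGI is the concentration that stops growth completely.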

For the compound `O=C1CCc2c(sc3[nH]c(=S)n(-c4cc(C(F)(F)F)cc(C(F)(F)F)c4)c(=O)c23)C1`, the GI50 in the assay on HS 578T breast was 0.339 µM; in the assay with IGROV1 ovarian, 0.446 µM; in the assay with K-562 leukemia, 0.185 µM; in the assay on MOLT-4 leukemia, 0.636 µM; in the assay with NCI-H522 lung, 0.344 µM; in the assay on SF-295 CNS, 0.318 µM. Besides, the GI50 with SF-539 CNS was 0.362 µM; with SK-MEL-2 melanoma, 0.721 µM; in the assay on SW-620 colon, 0.376 µM; in the assay on TK-10 renal, 0.874 µM. Besides, the TGI with HS 578T breast is 16.4 µM; in the assay with IGROV1 ovarian it was 3.44 µM; in the assay on K-562 leukemia, above 73.1 µM; with MOLT-4 leukemia it was 9.15 µM; in the assay with NCI-H522 lung, 1.5 µM; in the assay with SF-295 CNS, 1.1 µM. Besides, the TGI in the assay on SF-539 CNS is 1.7 µM; in the assay with SK-MEL-2 melanoma it was 3.74 µM; in the assay with SW-620 colon, 15.7 µM; with TK-10 renal it was above 44.1 µM.
Consider `OCCCCC#Cc1ccccc1C#Cc1ccc(O)cc1`, for which the GI50 in the assay with HS 578T breast is 26.2 µM; in the assay on IGROV1 ovarian, 9.56 µM; with K-562 leukemia, 20.4 µM; in the assay with MOLT-4 leukemia, 9.96 µM; in the assay with NCI-H522 lung, 13.8 µM; in the assay on SF-295 CNS, 16.2 µM. Besides, the GI50 is 17.9 µM in the assay with SF-539 CNS, 20.8 µM in the assay on SK-MEL-2 melanoma, 18.2 µM in the assay on SW-620 colon and 17.5 µM in the assay on TK-10 renal. Besides, the TGI in the assay with HS 578T breast was 77.1 µM; in the assay with IGROV1 ovarian it was 22.8 µM; in the assay with K-562 leukemia it was 45 µM; in the assay with MOLT-4 leukemia, 38.9 µM; with NCI-H522 lung, 28.8 µM; in the assay with SF-295 CNS it was 32 µM. The TGI turned out to be 35.9 µM in the assay with SF-539 CNS, 43 µM in the assay on SK-MEL-2 melanoma, 37.1 µM in the assay with SW-620 colon and 31.7 µM with TK-10 renal.
`C/C(=C\c1ccn(-c2ccccc2N)n1)[C@@H]1C[C@@H]2O[C@]2(C)CCC[C@H](C)[C@H](O)[C@@H](C)C(=O)C(C)(C)[C@@H](O)CC(=O)O1`: the GI50 was 0.0658 µM in the assay with HS 578T breast; 0.247 µM in the assay with IGROV1 ovarian; 0.0268 µM in the assay on K-562 leukemia; 0.0341 µM in the assay with MOLT-4 leukemia; 0.0511 µM with NCI-H522 lung; 0.0797 µM with SF-295 CNS. The GI50 in the assay on SF-539 CNS was 0.0334 µM; with SK-MEL-2 melanoma, 0.0819 µM; in the assay on SW-620 colon it was 0.0245 µM; in the assay on TK-10 renal, 0.143 µM. Also, the TGI is 10 µM with HS 578T breast; above 50 µM with IGROV1 ovarian; above 50 µM in the assay with K-562 leukemia; above 42.2 µM in the assay with MOLT-4 leukemia; 0.386 µM in the assay with NCI-H522 lung; above 50 µM in the assay with SF-295 CNS. Further, the TGI with SF-539 CNS is 0.236 µM; with SK-MEL-2 melanoma, above 50 µM; with SW-620 colon it was above 50 µM; in the assay on TK-10 renal, above 50 µM.
On to `O=C1NC(N/N=C\C(O)C(O)C(O)C(O)CO)=N/C1=C/c1ccccc1` (stereo unspecified), for which the GI50 in the assay on HS 578T breast was > 100 µM and 24.6 µM; with IGROV1 ovarian, > 100 µM and 16.2 µM; in the assay with K-562 leukemia it was 67.6 µM and 33.8 µM and 28.8 µM; in the assay with MOLT-4 leukemia, 22.3 µM and 2.74 µM and 25.7 µM; in the assay with NCI-H522 lung it was 96.5 µM and 18.6 µM and > 100 µM; in the assay with SF-295 CNS, 84.1 µM and 16.2 µM and > 100 µM. Moreover, the GI50 with SF-539 CNS was > 100 µM and 17.4 µM; in the assay on SK-MEL-2 melanoma it was > 100 µM and 16.6 µM; in the assay on SW-620 colon, 54.2 µM and 23 µM and > 100 µM; with TK-10 renal it was > 100 µM and 19 µM. The TGI was > 100 µM and 73.4 µM in the assay on HS 578T breast; > 100 µM and 33.3 µM in the assay on IGROV1 ovarian; above 100 µM with K-562 leukemia; > 100 µM and 40.5 µM in the assay on NCI-H522 lung; > 100 µM and 38.2 µM with SF-295 CNS; > 100 µM and 35.3 µM with SF-539 CNS. Besides, the TGI in the assay with SK-MEL-2 melanoma was > 100 µM and 32.7 µM; in the assay on SW-620 colon it was > 100 µM and 83.4 µM; in the assay with TK-10 renal, > 100 µM and 48.3 µM.
As to `O=C(O)C[C@H](O)C[C@H](O)/C=C/c1c(C2CC2)nc2ccccc2c1-c1ccc(F)cc1`, the GI50 is 6.45 µM and 2.1 µM with HS 578T breast; 5.25 µM and 3.6 µM in the assay with IGROV1 ovarian; 6.4 µM and 7.73 µM in the assay with K-562 leukemia; > 100 µM and 54.5 µM in the assay with MOLT-4 leukemia; 1.38 µM and 0.633 µM in the assay with NCI-H522 lung; 2.1 µM and 0.526 µM in the assay on SF-295 CNS. The GI50 in the assay on SF-539 CNS was 43.7 µM and 5.46 µM; in the assay with SK-MEL-2 melanoma, 4.06 µM; with SW-620 colon, 18.6 µM and 4.92 µM. The TGI in the assay with HS 578T breast was above 100 µM; in the assay on IGROV1 ovarian, 43.5 µM and > 100 µM; with K-562 leukemia it was above 100 µM; in the assay with MOLT-4 leukemia, above 100 µM; with SF-295 CNS, above 100 µM; in the assay with SF-539 CNS it was above 100 µM. Besides, the TGI with SK-MEL-2 melanoma, with SW-620 colon and in the assay on TK-10 renal was above 100 µM throughout.
As to `CCC(=O)N1C/C(=C/c2ccc(Cl)cc2)C(=O)/C(=C/c2ccc(Cl)cc2)C1`, the GI50 is 2.06 µM with HS 578T breast; 0.998 µM in the assay on IGROV1 ovarian; 0.317 µM in the assay on K-562 leukemia; 0.974 µM in the assay on MOLT-4 leukemia; 0.973 µM in the assay on NCI-H522 lung; 0.514 µM with SF-295 CNS. For the same compound, the GI50 in the assay with SF-539 CNS is 0.69 µM; with SK-MEL-2 melanoma, 2.01 µM; in the assay on SW-620 colon, 0.287 µM; in the assay on TK-10 renal, 1.76 µM. In addition, the TGI with HS 578T breast turned out to be 6.05 µM; in the assay on IGROV1 ovarian, 2.55 µM; in the assay on MOLT-4 leukemia it was 5.87 µM; with NCI-H522 lung, 2.4 µM; in the assay with SF-295 CNS, 2.09 µM; in the assay with SF-539 CNS, 1.91 µM. Also, the values for the TGI with SK-MEL-2 melanoma, in the assay on SW-620 colon and in the assay on TK-10 renal were 3.94 µM, 0.94 µM and 3.52 µM, respectively.
With `CC1=CC2C(C(O)CC3(C)C2CC(C)C32OCOC23COCO3)C2(C)C/C(=C/O)C(=O)C=C12` (stereo unspecified), the GI50 is 2.28 µM in the assay with HS 578T breast; 2.07 µM in the assay with IGROV1 ovarian; 2.09 µM in the assay with K-562 leukemia; 1.97 µM in the assay with MOLT-4 leukemia; 1.79 µM in the assay on NCI-H522 lung; 2.22 µM in the assay with SF-295 CNS. Moreover, the GI50 was 1.93 µM in the assay with SF-539 CNS, 1.97 µM in the assay on SK-MEL-2 melanoma, 1.65 µM in the assay on SW-620 colon and 1.91 µM in the assay on TK-10 renal. Also, the TGI in the assay on HS 578T breast came to 5.72 µM; in the assay with IGROV1 ovarian, 4 µM; in the assay with K-562 leukemia it was 5.73 µM; in the assay with MOLT-4 leukemia it was 4.9 µM; in the assay with NCI-H522 lung, 3.47 µM; in the assay with SF-295 CNS, 5.34 µM. Besides, the TGI in the assay with SF-539 CNS turned out to be 3.64 µM; in the assay on SK-MEL-2 melanoma, 3.8 µM; in the assay on SW-620 colon, 3.32 µM; in the assay with TK-10 renal, 3.59 µM.
